Source: ChEMBL document CHEMBL4627384, “l-Thyroxin and the Nonclassical Thyroid Hormone TETRAC Are Potent Activators of PPARγ” (J Med Chem, 2020)
Activity calls are given as the source filed them. The calls are words filed in the database; no cut-off is given here.

Legend:
[1] = target: T1, Peroxisome proliferator-activated receptor gamma (Homo sapiens) (UniProt P37231); experiment: Agonist activity at PPARgamma in human HepG2 cells assessed as induction of CD36 mRNA expression at 10 to 30 uM incubated for 8 hrs by qPCR analysis; type: cell-based
T1 sequence (whole entry): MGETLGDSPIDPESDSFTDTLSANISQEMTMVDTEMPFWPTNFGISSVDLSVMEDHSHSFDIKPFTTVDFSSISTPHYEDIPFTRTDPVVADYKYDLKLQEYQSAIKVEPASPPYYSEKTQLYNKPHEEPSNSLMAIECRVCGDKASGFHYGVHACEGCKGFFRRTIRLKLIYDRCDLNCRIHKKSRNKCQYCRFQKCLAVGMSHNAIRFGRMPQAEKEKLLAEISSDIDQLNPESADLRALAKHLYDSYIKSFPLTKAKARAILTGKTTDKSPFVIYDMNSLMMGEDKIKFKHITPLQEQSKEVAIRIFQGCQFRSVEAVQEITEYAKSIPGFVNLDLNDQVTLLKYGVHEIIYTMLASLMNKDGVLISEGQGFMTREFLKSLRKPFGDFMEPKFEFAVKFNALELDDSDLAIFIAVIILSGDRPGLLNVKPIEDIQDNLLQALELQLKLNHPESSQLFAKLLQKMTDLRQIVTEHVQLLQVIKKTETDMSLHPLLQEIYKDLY

[2] = target: T1, Peroxisome proliferator-activated receptor gamma (Homo sapiens); experiment: Agonist activity at PPARgamma in human HepG2 cells assessed as induction of CD36 mRNA expression at 30 uM incubated for 8 hrs in presence of PPARgamma antagonist GW9662 by qPCR analysis; type: cell-based
[3] = target: T1, Peroxisome proliferator-activated receptor gamma (Homo sapiens); experiment: Agonist activity at PPARgamma in human HepG2 cells without THRA knockdown assessed as induction of CD36 expression at 30 uM incubated for 8 hrs in by Western blot analysis; type: cell-based
[4] = Drug metabolism in human HepG2 cells assessed as 2-(4-(4-hydroxy-3-iodophenoxy)-3,5-diiodophenyl)acetic acid formation at 10 uM incubated for 24 hrs by LC-MS analysis; type: ADME, cell-based; settings: hepg2, 24 h
[5] = target: T1, Peroxisome proliferator-activated receptor gamma (Homo sapiens); experiment: Agonist activity at N-terminal GFP-fused PPARgamma LBD (unknown origin) assessed as biotin-labeled CBP recruitment incubated for 2 hrs by HT-FRET assay
[6] = target: T1, Peroxisome proliferator-activated receptor gamma (Homo sapiens); experiment: Agonist activity at N-terminal GFP-fused PPARgamma LBD (unknown origin) assessed as biotin-labeled CBP recruitment incubated for 2 hrs by HT-FRET assay relative to rosiglitazone
[7] = target: T2, Retinoic acid receptor RXR-alpha (Homo sapiens) (UniProt P19793); experiment: Agonist activity at GFP RXRalpha LBD (unknown origin) assessed as biotin-labeled SRC-1 recruitment incubated for 2 hrs by HT-FRET assay relative to SR11237
T2 sequence (whole entry): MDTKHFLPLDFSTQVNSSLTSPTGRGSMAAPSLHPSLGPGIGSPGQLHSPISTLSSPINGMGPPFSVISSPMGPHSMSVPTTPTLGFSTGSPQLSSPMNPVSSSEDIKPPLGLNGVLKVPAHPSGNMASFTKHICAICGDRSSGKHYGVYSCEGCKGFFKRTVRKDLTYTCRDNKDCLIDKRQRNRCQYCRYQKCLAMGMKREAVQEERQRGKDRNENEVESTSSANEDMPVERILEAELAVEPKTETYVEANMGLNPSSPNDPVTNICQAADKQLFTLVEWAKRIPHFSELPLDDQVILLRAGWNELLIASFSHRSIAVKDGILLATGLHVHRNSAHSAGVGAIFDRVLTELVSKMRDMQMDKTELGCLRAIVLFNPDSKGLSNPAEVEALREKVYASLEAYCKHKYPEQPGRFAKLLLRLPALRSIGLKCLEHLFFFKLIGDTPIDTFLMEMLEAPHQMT

[8] = target: RXR alpha/PPAR gamma (Homo sapiens) (UniProt P37231+P19793); experiment: Agonist activity at recombinant human pFA-CMV fused PPARgamma LBD transfected in HEK293T cells/human pFA-CMV fused RXRalpha LBD transfected in HEK293T cells assessed as increase in reporter activation at 0.1 to 3 uM incubated for 14 to 16 hrs using […]:RXRalpha LBD at ratio of 4:1 to 1:1 by dual glo luciferase reporter gene assay relative to rosiglitazone; type: cell-based; settings: HEK-293T
[9] = target: T3, Peroxisome proliferator-activated receptor gamma (Mus musculus) (UniProt P37238); experiment: Agonist activity at PPARgamma in mouse 3T3L1 adipocytes assessed as induction of adiponectin mRNA expression at 1 uM by qRT-PCR analysis; type: cell-based; settings: 3T3-L1
T3 sequence (whole entry): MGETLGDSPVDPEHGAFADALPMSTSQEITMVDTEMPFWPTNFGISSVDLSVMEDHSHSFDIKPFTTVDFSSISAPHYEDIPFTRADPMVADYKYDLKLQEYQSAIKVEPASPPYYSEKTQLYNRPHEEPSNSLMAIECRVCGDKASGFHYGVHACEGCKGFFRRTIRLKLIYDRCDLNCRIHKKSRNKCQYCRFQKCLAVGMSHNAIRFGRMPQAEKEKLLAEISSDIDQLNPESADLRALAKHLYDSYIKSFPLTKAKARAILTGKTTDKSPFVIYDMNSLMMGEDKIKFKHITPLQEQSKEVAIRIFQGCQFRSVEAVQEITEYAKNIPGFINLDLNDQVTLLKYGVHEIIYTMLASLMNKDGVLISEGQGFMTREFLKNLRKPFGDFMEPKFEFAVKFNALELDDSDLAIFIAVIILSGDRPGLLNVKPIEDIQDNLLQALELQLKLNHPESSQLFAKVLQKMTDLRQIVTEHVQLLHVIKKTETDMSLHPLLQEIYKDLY

[10] = target: T3, Peroxisome proliferator-activated receptor gamma (Mus musculus); experiment: Agonist activity at PPARgamma in mouse 3T3L1 adipocytes assessed as induction of LPL mRNA expression at 1 uM by qRT-PCR analysis; type: cell-based; settings: 3T3-L1
[11] = target: T1, Peroxisome proliferator-activated receptor gamma (Homo sapiens); experiment: Agonist activity at PPARgamma in human HepG2 cells assessed as induction of CD36 mRNA expression at 1 uM incubated for 8 hrs in presence of PPARgamma antagonist GW9662 by qPCR analysis; type: cell-based
[12] = target: T1, Peroxisome proliferator-activated receptor gamma (Homo sapiens); experiment: Agonist activity at PPARgamma in human HepG2 cells with THRA knockdown assessed as induction of CD36 expression at 1 uM incubated for 8 hrs in by Western blot analysis; type: cell-based
[13] = target: T4, Thyroid hormone receptor beta (Homo sapiens, UniProt P10828); experiment: Agonist activity at THRbeta (unknown origin) incubated for 14 to 16 hrs by dual glo luciferase reporter gene assay
T4 sequence (P10828 whole entry): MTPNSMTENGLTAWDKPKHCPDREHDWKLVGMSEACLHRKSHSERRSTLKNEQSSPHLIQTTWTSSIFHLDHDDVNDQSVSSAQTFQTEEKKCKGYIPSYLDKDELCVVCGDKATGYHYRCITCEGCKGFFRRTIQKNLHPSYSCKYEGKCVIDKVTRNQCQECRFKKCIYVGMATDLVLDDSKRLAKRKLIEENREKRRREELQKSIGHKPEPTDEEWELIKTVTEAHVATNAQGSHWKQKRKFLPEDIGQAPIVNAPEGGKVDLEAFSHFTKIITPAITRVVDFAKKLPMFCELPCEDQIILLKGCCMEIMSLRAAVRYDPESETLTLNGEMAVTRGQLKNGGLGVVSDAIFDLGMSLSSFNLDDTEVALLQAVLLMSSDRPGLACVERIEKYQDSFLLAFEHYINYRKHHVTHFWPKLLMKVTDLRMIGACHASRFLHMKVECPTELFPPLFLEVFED

Row | Structure (SMILES) | Activity [1] | Activity [2] | Activity [3] | Drug metabolism [4] | Activity [5] | Activity [6] | Activity [7] [%] | Activity [8] | Activity [9] | Activity [10] | Activity [11] | Activity [12] | EC50 [13] [nM]
1 | N[C@@H](Cc1cc(I)c(Oc2cc(I)c(O)c(I)c2)c(I)c1)C(=O)O [LEVOTHYROXINE] | Active | inactive | Active | Metabolite_Notdetected |  |  |  |  |  |  |  |  | 
2 | O=C(O)Cc1cc(I)c(Oc2cc(I)c(O)c(I)c2)c(I)c1 [TETRAC] |  |  |  |  | Active | Active | 8.2 | Active | Active | Active | inactive | Active | 20
